What was measured:
mTGR5 = target: T1, mTGR5 (Mus musculus, UniProt Q80SS6); assay: TGR5/CRE Luciferase Assay (mTGR5); format: cell-based; settings: for mTGR5 % trans: percentage of the 10 μM LCA value, HEK 293 cells transfected with mTGR5; for EC50: HEK 293 cells co-transfected with pCMV AC6-TGR5m and pCRE TA-Luciferase, overnight incubation
T1 construct: expressed in transfected cells; host or cells: HEK293 cells, transiently co-transfected with the pCRE TA-Luciferase reporter
T1 sequence (Q80SS6 1-329): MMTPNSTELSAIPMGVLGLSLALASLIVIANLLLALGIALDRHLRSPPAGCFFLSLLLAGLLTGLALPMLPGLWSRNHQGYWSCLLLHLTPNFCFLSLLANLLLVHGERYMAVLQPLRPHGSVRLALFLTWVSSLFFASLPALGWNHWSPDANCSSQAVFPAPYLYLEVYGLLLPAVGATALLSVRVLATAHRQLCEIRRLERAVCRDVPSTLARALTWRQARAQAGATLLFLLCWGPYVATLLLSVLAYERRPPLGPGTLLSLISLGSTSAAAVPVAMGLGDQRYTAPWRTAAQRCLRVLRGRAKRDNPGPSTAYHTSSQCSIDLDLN
Procedure, shortened: (§1)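 Transiently co-transfected HEK293 cells expressing human or mouse TGR5 plus a CRE-luciferase reporter were incubated overnight with rising compound concentrations in duplicate. Luminescence reported cAMP-driven expression; 10 μM lithocholic acid served as positive reference. Curves fitted to a 4-parameter logistic.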

hTGR5 = target: T2, hTGR5 (Homo sapiens, UniProt Q8TDU6); assay: TGR5/CRE Luciferase Assay (hTGR5); format: cell-based; settings: for EC50: HEK 293 cells co-transfected with pCMV tag4b-TGR5h and pCRE TA-Luciferase, overnight incubation; for hTGR5 % trans: percentage of the 10 μM LCA value, HEK 293 cells transfected with hTGR5
T2 construct: expressed in transfected cells; host or cells: HEK293 cells, transiently co-transfected with the pCRE TA-Luciferase reporter
T2 sequence (Q8TDU6 1-330): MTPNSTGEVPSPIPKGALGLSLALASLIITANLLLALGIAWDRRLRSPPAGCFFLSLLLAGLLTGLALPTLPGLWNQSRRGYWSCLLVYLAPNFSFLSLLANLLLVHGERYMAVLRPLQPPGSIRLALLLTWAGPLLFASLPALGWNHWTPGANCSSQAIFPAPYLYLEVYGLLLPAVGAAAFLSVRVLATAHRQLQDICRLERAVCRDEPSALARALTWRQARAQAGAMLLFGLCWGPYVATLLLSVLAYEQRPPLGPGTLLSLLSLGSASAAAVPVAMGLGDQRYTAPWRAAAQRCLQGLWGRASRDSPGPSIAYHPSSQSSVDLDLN
Procedure, shortened: as §1

| mTGR5 % trans (mTGR5) [%] | EC50 (hTGR5) [nM] | hTGR5 % trans (hTGR5) [%] | EC50 (mTGR5) [nM] | SMILES |
| --- | --- | --- | --- | --- |
| 71 | 130 | 99 | – | COc1ccccc1COC(=O)C1=C(C)N(C[C@H]2CCCO2)C(=O)C[C@@H]1c1ccc(Cl)nc1 [Example 165, (2-M ethoxyphenyl)methyl-(4R)-4-(6-chloro-3-pyridyl)-6-methyl-2-oxo-1-[[(2R)-tetrahydrofuran-2-yl]methyl]-3,4-dihydropyridine-5-carboxylate] |
| 113 | 160 | 103 | 100 | CC1=C(C(=O)OCc2ccc(OCCCS(=O)(=O)O)cc2)[C@H](c2ccc(Cl)nc2)CC(=O)N1C[C@H]1CCCO1.N [Example 166, Ammonium,3-[4-[[(4S)-4-(6-chloro-3-pyridyl)-6-methyl-2-oxo-1-[[(2R)-tetrahydrofuran-2-yl]methyl]-3,4-dihydropyridine-5-carbonyl]oxymethyl]phenoxy]propane-1-sulfonate] |
| 120 | 65 | 106 | 26 | CC1=C(C(=O)OCc2ccc(OCCCS(=O)(=O)O)cc2)[C@H](c2ccc(Cl)cc2)CC(=O)N1C[C@H]1CCCO1.N [Example 168, Ammonium,3-[4-[[(4S)-4-(4-chlorophenyl)-6-methyl-2-oxo-1-[[(2R)-tetrahydrofuran-2-yl]methyl]-3,4-dihydropyridine-5-carbonyl]oxymethyl]phenoxy]propane-1-sulfonate] |
| 103 | 30 | 103 | 9 | CC1=C(C(=O)OCc2ccc(OCCCCS(=O)(=O)O)cc2)[C@H](c2ccc(Cl)cc2)CC(=O)N1C[C@H]1CCCO1 [Example 169, Ammonium; 4-[4-[[(4S)-4-(4-chlorophenyl)-6-methyl-2-oxo-1-[[(2R)-tetrahydrofuran-2-yl]methyl]-3,4-dihydropyridine-5-carbonyl]oxymethyl]phenoxy]butane-1-sulfonate] |
